{"source": "patent US9428464B2", "about": "“Kynurenine-3-monooxygenase inhibitors, pharmaceutical compositions, and methods of use thereof” (CHDI Foundation, Inc., priority 2011, dated 2016)", "system": "KMO", "assay": "KMO activity assay: L-Kynurenine hydroxylation to 3-Hydroxy-Kynurenine, quantified by LC/MS", "assay_type": "biochemical", "settings": "compound at 10 uM; footnote: some portion of activity of amides may be due to contribution of acid precursor", "outline": "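Enzyme: KMO from mitochondria isolated from CHO cells expressing GST-His-KMO, with L-kynurenine as substrate (stock 10 mM in 100 mM potassium phosphate, pH 7.4). Conversion to 3-hydroxy-kynurenine quantified by LC/MS multiple reaction monitoring; compound stocks 10 mM in DMSO.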", "data": [{"smiles": "CCCCOC(=O)c1cc(-c2ccc(Cl)c(Cl)c2)ncn1", "note": "[butyl 6-(3,4-dichlorophenyl)pyrimidine-4-carboxylate]", "values": [{"measurement": "% Inhibition at 10 uM", "result": 100, "unit": "%"}]}, {"smiles": "CC(C)OC(=O)c1cc(-c2ccc(Cl)c(Cl)c2)ncn1", "note": "[propan-2-yl 6-(3,4-dichlorophenyl)pyrimidine-4-carboxylate]", "values": [{"measurement": "% Inhibition at 10 uM", "result": 100, "unit": "%"}]}]}
